In BindingDB's records for doi:10.1021/jm070654j (University of Zurich, 2008):

Target: Cyclin-dependent kinase 1 (Homo sapiens, UniProt P06493)
Assay: Inhibition of CDK1

Cyclin-dependent kinase 1, sequence (P06493 whole entry): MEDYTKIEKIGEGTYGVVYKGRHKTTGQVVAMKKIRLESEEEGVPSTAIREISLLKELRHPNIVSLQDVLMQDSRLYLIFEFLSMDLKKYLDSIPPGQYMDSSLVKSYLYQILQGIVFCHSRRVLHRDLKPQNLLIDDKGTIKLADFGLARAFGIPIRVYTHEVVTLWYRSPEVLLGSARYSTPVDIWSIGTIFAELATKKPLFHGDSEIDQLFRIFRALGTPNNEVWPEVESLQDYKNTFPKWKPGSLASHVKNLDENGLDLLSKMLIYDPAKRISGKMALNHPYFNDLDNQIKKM

IC50, > 1 µM:
Cc1cccc2c1NC(=O)C2C=Nc1ccc(S(N)(=O)=O)cc1 (stereo not drawn), Cc1cc(C)c2c(c1)C(C=Nc1ccc(S(N)(=O)=O)cc1)C(=O)N2 (stereo not drawn), Cc1cc(Cl)cc2c1NC(=O)C2C=Nc1ccc(S(N)(=O)=O)cc1 (stereo not drawn)
